# Reference: patent EP0460883B1, “Process for beta-hydroxy-alpha-amino acids” (THE UNIVERSITY OF NOTRE DAME DU LAC, priority 1990, dated 1991)
# How the values were obtained:
# [1] = tested on: serine hydroxymethyltransferase (SHMT); assay: Conversion of aldehyde substrates and glycine to β-hydroxy-α-amino acids by SHMT (HPLC assay); type: biochemical, corn; set-up: key: + = conversion; - = no detectable conversion
# Description: (§1) The following Table 1 lists representative aldehyde substrates which were converted in the process to β-hydroxy-α-amino acids with SHMT from two sources. The conversion of the substrates in Table 1 was carried out by incubating the substrate and glycine with SHMT under the conditions of the process. A number of the process conditions used were common to all of the substrates and are detailed in the following paragraphs. Wherever exceptions occurred they are noted in each instance.
# (§2) The incubations were carried out in 10 mM phosphate buffer, pH 7.3 containing pyridoxal 5′-phosphate at a concentration of about 80 µM. All solutions were prepared from distilled, deionized water for best results. The conversions were carried out at about 37°C in sealed, 500 µL polypropylene micro-centrifuge vials in a constant-temperature water bath. The vials were protected from light except when removed from the water bath for removal of aliquots for analysis. With all conversions an enzyme blank incubation was carried out in parallel with the SHMT incubation. The total volume of the incubation mixture was typically about 200 µL. The conditions in the blank were identical to those of the incubation mixture except for the absence of the enzyme.
# (§3) The process can be monitored for production of the β-hydroxy-α-amino acid by removing aliquots from the incubation mixture from time to time and assaying the samples by HPLC separation and fluorescence detection of o-phthalaldehyde derived isoindoles of all primary amine compounds present in the mixture. The assay procedure is described by Jones, B.N.; Gilligan, J. P., J. Chrom. 1983, 266, 471; Jones, B. N. et al., J. Liq. Chrom. 1981, 4,565, and Simons, Jr., S. S. et al., J. Am Chem. Soc. 1976, 98, 7098. HPLC analysis of both the incubation mixture and the enzyme blank allowed determination of which peak(s) on the chromatograms could be assigned to enzyme products.
# All of the following procedures were carried out at 4°C. Washed 5-7 day old corn seedlings were homogenized in a Waring blender in 100 mM potassium monohydrogen phosphate containing 1 mM disodium ethylenediaminetetraacetate (EDTA), 1 mM dithiothreitol, and 125 µM of pyridoxal 5'-phosphate. The mix contained approximately 960 g of seedlings per liter. The homogenate was filtered through cheese cloth and the filtrate was subjected to ammonium sulfate precipitation. The protein which precipitated with 35-50% saturation in ammonium sulfate upon centrifuging at 13,800 x g for 40 min. was dissolved in 10 mM phosphate buffer, pH 7.8, containing […] pyridoxal 5'-phosphate and 1 mM EDTA. The solution was dialyzed and concentrated to 5-15 mg of protein/ml in the same buffer without EDTA present. Assay for aldolase activity of the protein consisted of a coupled system between the aldolase-catalyzed retroaldol of L-allo-threonine with the NADH (reduced form of nicotinamide adenine dinucleotide) dependent reduction of the resulting acetaldehyde by yeast alcohol dehydrogenase (ADH). Specific activity averaged 78 milliunits/mg of protein. One unit of enzyme activity is defined as that amount of enzyme required to cause a change of one optical density unit (at 340 nm) per minute at room temperature in the presence of ADH, 120 mM L-allo-threonine, 125 µM PLP, and 120 µM NADH in 100 mM phosphate buffer, pH 7.5.
# [2] = target: T1, serine hydroxymethyltransferase (SHMT) (Oryctolagus cuniculus, UniProt P07511); assay: as above; type: biochemical, rabbit; set-up: key: + = conversion; - = no detectable conversion
# T1 construct: Three such sources are rabbit liver (LaVerne Schirch and Merle Mason, J. Biol. Chem., Vol. 237, No. 8, August 1962); from tissue; host or cells: rabbit liver
# T1 sequence (P07511 2-484 limits assumed): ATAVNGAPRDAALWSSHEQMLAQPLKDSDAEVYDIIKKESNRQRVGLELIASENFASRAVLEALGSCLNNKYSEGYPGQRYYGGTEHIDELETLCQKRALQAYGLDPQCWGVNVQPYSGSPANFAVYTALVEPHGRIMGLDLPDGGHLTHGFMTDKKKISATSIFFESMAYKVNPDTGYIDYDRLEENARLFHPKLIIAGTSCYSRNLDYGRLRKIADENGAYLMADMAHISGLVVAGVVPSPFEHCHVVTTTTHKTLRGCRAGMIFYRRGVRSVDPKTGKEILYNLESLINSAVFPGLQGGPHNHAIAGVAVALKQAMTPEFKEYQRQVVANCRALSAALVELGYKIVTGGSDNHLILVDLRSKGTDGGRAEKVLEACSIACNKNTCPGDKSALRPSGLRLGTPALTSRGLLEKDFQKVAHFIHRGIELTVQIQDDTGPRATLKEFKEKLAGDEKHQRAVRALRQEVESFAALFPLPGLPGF
# Description: as §1, §2, §3
# [3] = incubation with glycine, 10 mM phosphate buffer pH 7.3, pyridoxal 5′-phosphate about 80 µM, about 37°C
"Aldehyde (RCHO) Substrates for SHMT, Enzyme Rabbit Liver [2, 3]",Structure (SMILES),"Aldehyde (RCHO) Substrates for SHMT, Enzyme Corn Seedlings [1, 3]","Aldehyde (RCHO) Substrates for SHMT, Enzyme Corn Seedlings ([1]; as the other substrates, but tetrahydrofolate was present)","Aldehyde (RCHO) Substrates for SHMT, Enzyme Rabbit Liver ([2]; as the other substrates, but VO3- (metavanadate) was present)"
+,"COC(=O)CCC=O [-CH2CH2CO2CH3, succinic semialdehyde methyl ester]",+,,
,"CCC=O [-CH2CH3, propionaldehyde]",+,,
,O=CCOCc1ccccc1 [-CH2OCH2C6H5],+,,
+,O=CCCc1ccco1,-,,
+,"COC(=O)CCCC=O [-CH2CH2CH2CO2CH3, Glutaric semialdehyde methyl ester]",+,,
+,"CC(C)OC(=O)CCC=O [-CH2CH2CO2(CH3)2, succinic semialdehyde isopropyl ester]",,,
-,O=CC(=O)O [-CO2H],-,,
,"CC(=O)C=O [-C(O)CH3, pyruvaldehyde]",,+,+
+,"O=CCCCOC=O [-CH2CH2CH2OCHO, O-formyl 4-hydroxybutanal]",,,

Structure (SMILES),"Aldehyde (RCHO) Substrates for SHMT, Enzyme Rabbit Liver [2, 3]","Aldehyde (RCHO) Substrates for SHMT, Enzyme Corn Seedlings [1, 3]","Aldehyde (RCHO) Substrates for SHMT, Enzyme Corn Seedlings ([1]; as the other substrates, but tetrahydrofolate was present)","Aldehyde (RCHO) Substrates for SHMT, Enzyme Rabbit Liver ([2]; as the other substrates, but VO3- (metavanadate) was present)"
"O=Cc1ccco1 [Example 2-furyl, 2-furfural]",+,+,,
"CCCC=O [-CH2CH2CH3, n-butanal]",+,,,
"CC=O [-CH3, acetaldehyde]",+,+,,
"O=Cc1ccccc1 [Example C6H5, benzaldehyde]",+,-,,
